The record followed here is ChEMBL document CHEMBL4814036, “Synthesis and anti-fibrotic effects of santamarin derivatives as cytotoxic agents against hepatic stellate cell line LX2” (Bioorg Med Chem Lett, 2021).

In brackets after ≈: the same amount, converted by molar mass. Activity calls are given as the source filed them. The rule behind the calls is not given here. Bounds are passed on as bounds.

Test [1] is described as follows: Inhibition of hyaluronic acid deposition in human LX2 cells. The format is functional, cell-based. To be noted: lx-2.
The nature of test [2]: Potency index, ratio of STM IC50 to test compound IC50 for inhibition of laminin deposition in human LX2 cells. The test is classed as functional, LX-2.
Test [3] in a line: Potency index, ratio of STM IC50 to test compound IC50 for inhibition of hyaluronic acid deposition in human LX2 cells. The test is classed as functional, LX-2.
Test [4] is described as follows: Potency index, ratio of STM IC50 to test compound IC50 for cytotoxicity against human LX2 cells. The test is classed as functional, LX-2.
Test [5] is described as follows: Inhibition of collagen type 1 deposition in human LX2 cells. The test is classed as functional, cell-based. Particulars: lx-2.
Test [6] can be described thus: Cytotoxicity against human LX2 cells assessed as reduction in cell viability by MTT assay. The test is classed as functional, cell-based. To be noted: LX-2.
Test [7] can be described thus: Inhibition of laminin deposition in human LX2 cells. The format is functional, cell-based. To be noted: lx-2.
Test [8] deals with L1210. In words: Growth inhibition of mouse L1210 cells incubated for 24 to 48 hrs by trypan blue exclusion assay. The test is classed as functional, cell-based.
Test [9] is described as follows: Inhibition of hyaluronic acid deposition in human LX2 cells incubated for 72 hrs by ELISA. The format is functional, cell-based. To be noted: lx-2.
The nature of test [10]: Inhibition of laminin deposition in human LX2 cells incubated for 72 hrs by ELISA. The format is functional, cell-based. Particulars: lx-2.
For test [11], the system named is MCF7. As to the kind of experiment: Growth inhibition of human MCF7 cells incubated for 72 hrs by methylene blue staining based assay. The format is functional, cell-based. To be noted: MCF7, 72 h.
Test [12] relates to CCRF-CEM. As to the kind of experiment: Growth inhibition of human CCRF-CEM cells incubated for 24 to 48 hrs by trypan blue exclusion assay. The format is functional, cell-based.
Test [13] has as its system KB. As to the kind of experiment: Growth inhibition of human KB cells incubated for 72 hrs by methylene blue staining based assay. The format is functional, cell-based.
Test [14] is described as follows: Cytotoxicity against human LX2 cells assessed as reduction in cell viability incubated for 48 hrs by MTT assay. The test is classed as functional, cell-based. To be noted: LX-2, 48 h.
Test [15] concerns LS174T. In words: Growth inhibition of human LS174T cells incubated for 72 hrs by methylene blue staining based assay. The format is functional, cell-based.
A short description of test [16]: Inhibition of collagen type 1 deposition in human LX2 cells incubated for 72 hrs by ELISA. The test is classed as functional, cell-based. To be noted: lx-2.
In test [17] the test system is LX-2. As to the kind of experiment: Cytotoxicity against human LX2 cells assessed as reduction in cell viability at 100 uM by MTT assay. The format is functional, cell-based.

Take `C=C1C(=O)O[C@@H]2[C@H]3C(C)=CC[C@@H](OC(=O)CCC(=O)O[C@@H]4CC=C(C)[C@@H]5[C@H]6OC(=O)C(=C)[C@@H]6CC[C@]54C)[C@]3(C)CC[C@@H]12`: the IC50 is 17.9 µM in test [1], 16.2 µM in test [5], 3.5 µM in test [6] and 6.6 µM in [7]. The figures for the “Ratio IC50” value in test [2], in test [3] and in test [4] were 3, 3 and 5, respectively.

In the case of `C=C1C(=O)O[C@@H]2[C@H]3C(C)=CC[C@@H](O)[C@]3(C)CC[C@@H]12` [SANTAMARIN], the 50% inhibitory concentration (IC50) was 0.16 µg/mL (≈ 0.644 µM) in [8]; over 60 µM in [9]; 18.6 µM in test [10]; 0.16 µg/mL (≈ 0.644 µM) in test [11]; 0.16 µg/mL (≈ 0.644 µM) in [12]; 0.16 µg/mL (≈ 0.644 µM) in test [13]. The IC50 in [14] was 16.5 µM; in test [15], 0.16 µg/mL (≈ 0.644 µM); in test [16] it was 7.3 µM.

With `CC1=CC[C@@H](O)[C@]2(C)CC[C@@H]3[C@H](OC(=O)[C@H]3CN(C)C)[C@@H]12`, the outcome in [17] was inactive.

With `C=C1C(=O)O[C@@H]2[C@H]3C(C)=CC[C@@H](OC(=O)/C=C/c4ccc(C(F)(F)F)cc4)[C@]3(C)CC[C@@H]12`, in test [6], the IC50 turned out to be 16.3 µM.

For the molecule `C=C1C(=O)O[C@@H]2[C@H]3C(C)=CC[C@@H](OC(=O)/C=C/c4ccccc4C(F)(F)F)[C@]3(C)CC[C@@H]12`, in test [6], the IC50 is 16.5 µM.

On to `C=C1C(=O)O[C@@H]2[C@@H]3[C@@](C)(CC[C@@H]12)[C@H](O)C[C@H]1O[C@@]31C`, for which the IC50 in test [6] was 47.4 µM.

With `C=C1C(=O)O[C@@H]2[C@H]3C(C)=CC[C@@H](OC(=O)c4cccnc4)[C@]3(C)CC[C@@H]12`, the IC50 in [6] came out at 27.6 µM.

With `C=C1C(=O)O[C@@H]2[C@H]3C(C)=CC[C@@H](OC(=O)/C=C/c4ccc(OC(C)=O)cc4)[C@]3(C)CC[C@@H]12`, the IC50 in [6] amounted to 21.5 µM.

Regarding `C=C1C(=O)O[C@@H]2[C@H]3C(C)=CC[C@@H](OC(=O)CCCCCCC)[C@]3(C)CC[C@@H]12`, the IC50 in [6] was 32.4 µM.

Take `C=C1C(=O)O[C@@H]2[C@H]3C(C)=CC[C@@H](OC(=O)CCC(=O)Oc4ccc(-n5cc(C)ccc5=O)cc4)[C@]3(C)CC[C@@H]12`: the IC50 in [6] came to 55.9 µM.

Regarding `C=C1C(=O)O[C@@H]2[C@H]3C(C)=CC[C@@H](OC(=O)CCCC(=O)O[C@@H]4CC=C(C)[C@@H]5[C@H]6OC(=O)C(=C)[C@@H]6CC[C@]54C)[C@]3(C)CC[C@@H]12`, in [6], the IC50 is 11.1 µM.

For the molecule `C=C1C(=O)O[C@@H]2[C@H]3C(C)=CC[C@@H](OC(C)=O)[C@]3(C)CC[C@@H]12`, the IC50 in [6] was 12.3 µM.

For `C=C1C(=O)O[C@@H]2[C@H]3C(C)=CCC(=O)[C@]3(C)CC[C@@H]12`, the IC50 in test [6] is 44.4 µM.

`C=C1C(=O)O[C@@H]2[C@H]3C(C)=CC[C@@H](OC(=O)/C=C/c4ccc(C=O)cc4)[C@]3(C)CC[C@@H]12`: in [6], the concentration for half-maximal inhibition (IC50) worked out at 45.5 µM.

With `C=C1C(=O)O[C@@H]2[C@H]3C(C)=CC[C@@H](OC(=O)c4ccccc4)[C@]3(C)CC[C@@H]12`, the IC50 in test [6] amounted to 16.9 µM.

Turning to `C=C1[C@H](O)C[C@@H](O)[C@]2(C)CC[C@H]3C(=C)C(=O)O[C@@H]3[C@@H]12`, the IC50 in [6] is 43.3 µM.

Regarding `C=C1C(=O)O[C@@H]2[C@H]3C(C)=CC[C@@H](OC(=O)c4cccs4)[C@]3(C)CC[C@@H]12`, the IC50 in test [6] worked out at 31.3 µM.

As for `C=C1C(=O)O[C@@H]2[C@H]3C(C)=CC[C@@H](OC(=O)/C=C/c4cccc(C(F)(F)F)c4)[C@]3(C)CC[C@@H]12`, the concentration for half-maximal inhibition (IC50) in test [1] is 21.2 µM; in test [5], 14.7 µM; in [6], 6.4 µM; in [7], 7.3 µM. In addition, the “Ratio IC50” value in test [2], in test [3] and in test [4] was 3 in each case.

Consider `C=C1C(=O)O[C@@H]2[C@H]3C(C)=CC[C@@H](OC(=O)C4CCCC4)[C@]3(C)CC[C@@H]12`, for which, in [6], the IC50 came out at 11.9 µM.

Consider `C=C1C(=O)O[C@@H]2[C@H]3C(C)=CC[C@@H](OC(=O)/C=C/c4ccncc4)[C@]3(C)CC[C@@H]12`, for which the IC50 in test [6] came to 16.1 µM.

As for `C=C1C(=O)O[C@@H]2[C@H]3C(C)=CC[C@@H](OC(=O)CCC(=O)O)[C@]3(C)CC[C@@H]12`, the IC50 in test [6] came out at 92 µM.

`COc1cc([C@H]2Oc3cc([C@H]4Oc5cc(O)cc(O)c5C(=O)[C@@H]4O)ccc3O[C@@H]2CO)ccc1O` [SILYBIN A]: the IC50 was 164 µM in [1], 51.5 µM in [5], 151 µM in test [6] and 83.7 µM in [7].

Take `C=C1C(=O)O[C@@H]2[C@H]3C(C)=CC[C@@H](OC(=O)c4ccc(C(=O)O[C@@H]5CC=C(C)[C@@H]6[C@H]7OC(=O)C(=C)[C@@H]7CC[C@]65C)cc4)[C@]3(C)CC[C@@H]12`: the IC50 in test [6] stood at 9 µM.

`C=C1C(=O)O[C@@H]2[C@H]3C(C)=CC[C@@H](OC(=O)/C=C/c4ccccc4)[C@]3(C)CC[C@@H]12`: the IC50 in [6] is 17.6 µM.

`C=C1C(=O)O[C@@H]2[C@H]3C(C)=CC[C@@H](OC(=O)c4ccc(-n5cc(C)ccc5=O)cc4)[C@]3(C)CC[C@@H]12`: the IC50 in [6] was determined as 55.9 µM.

Regarding `C=C1C(=O)O[C@@H]2[C@H]3C(C)=CC[C@@H](OC(=O)c4cccc(C(F)(F)F)c4)[C@]3(C)CC[C@@H]12`, the IC50 in test [6] is 11.5 µM.

In the case of `C=C1C(=O)O[C@@H]2[C@H]3C(C)=CC[C@@H](OC(=O)/C=C/c4c(F)c(F)c(F)c(F)c4F)[C@]3(C)CC[C@@H]12`, the IC50 stood at 7.6 µM in test [1], 6.1 µM in [5], 4.6 µM in test [6] and 3.3 µM in test [7]. Further, the “Ratio IC50” value in test [2] came out at 6; in test [3] it was 8; in test [4], 4.

Turning to `C=C1C(=O)O[C@@H]2[C@H]3C(C)=CC[C@@H](OC(=O)/C=C/c4ccc(F)cc4)[C@]3(C)CC[C@@H]12`, the half-inhibitory concentration (IC50) in test [6] is 21 µM.
